This passage reports IC50 results from ChEMBL document CHEMBL3886950, “Furanone compounds as kinase inhibitors” (2016).

In this assay the target is Serine/threonine-protein kinase B-raf (Homo sapiens, UniProt P15056, V600E). The assay can be described thus: LanthaScreen Kinase Assay: The BRAFV600E enzymatic assay was performed using a LanthaScreen kinase assay kit purchased from Life Technologies (Grand Island, N.Y.). The assay was conducted according to the procedure provided in the assay kit. […] The final reaction volume for each reaction was 10 ul. The reaction was stopped by addition of 10 ul of TR-FRET dilution buffer kinase supplemented with kinase quench buffer (10 mM final) and Tb-anti-pMAP2K1 (2 nM final). The plate was further incubated at room temperature for another 60 minutes, and the fluorescent signals were read on Victor 5 (Perkin Elmer) with excitation at 340 nm and emission at 495 and 520 nM. The assay signal was determined as a ratio of FRET-specific signal measured with emission filter at 520 nM to that of the signal measured with Tb-specific emission filter at 495 nM. IC50 value was calculated using appropriate programs in GraphPad Prism by plotting the logarithm of the concentration versus percent inhibition.
Serine/threonine-protein kinase B-raf, sequence (P15056 2-766 V600E limits assumed): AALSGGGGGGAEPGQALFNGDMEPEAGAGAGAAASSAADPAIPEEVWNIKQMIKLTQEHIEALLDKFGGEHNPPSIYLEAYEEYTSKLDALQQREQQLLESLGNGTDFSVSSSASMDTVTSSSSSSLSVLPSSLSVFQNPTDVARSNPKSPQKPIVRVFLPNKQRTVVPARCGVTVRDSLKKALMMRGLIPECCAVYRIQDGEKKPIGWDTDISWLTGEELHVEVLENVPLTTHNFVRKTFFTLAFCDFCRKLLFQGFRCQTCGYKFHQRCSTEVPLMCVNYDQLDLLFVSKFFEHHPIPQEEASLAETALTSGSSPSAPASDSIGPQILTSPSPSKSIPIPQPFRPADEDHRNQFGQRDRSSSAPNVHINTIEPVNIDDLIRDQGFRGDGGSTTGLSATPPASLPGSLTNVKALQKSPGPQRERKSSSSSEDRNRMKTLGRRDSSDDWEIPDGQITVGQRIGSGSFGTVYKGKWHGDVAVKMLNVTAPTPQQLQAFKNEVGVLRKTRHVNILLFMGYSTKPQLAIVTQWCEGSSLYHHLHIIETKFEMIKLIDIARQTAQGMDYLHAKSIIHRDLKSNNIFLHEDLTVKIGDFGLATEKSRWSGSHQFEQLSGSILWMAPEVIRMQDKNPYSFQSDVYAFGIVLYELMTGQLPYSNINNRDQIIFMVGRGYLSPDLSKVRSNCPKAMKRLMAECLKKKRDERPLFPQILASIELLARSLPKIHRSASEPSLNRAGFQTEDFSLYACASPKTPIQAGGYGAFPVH
As for `Nc1nccc(C2=C(c3cccc(NS(=O)(=O)c4c(F)cccc4F)c3F)C(=O)C3(CCCC3)O2)n1`, the IC50 is 29 nM.

Turning to `CC1(C)OC(c2ccnc(N)n2)=C(c2cc(Cl)cc(NS(=O)(=O)c3ccc(F)cc3F)c2F)C1=O`, the IC50 was 10 nM.

On to `CC1(C)OC(c2ccnc(N)n2)=C(c2cc(Cl)cc(NS(=O)(=O)c3c(F)cccc3F)c2F)C1=O`, for which the IC50 is 5.5 nM.
